Measured values taken from ChEMBL document CHEMBL1140361, “Tubulin-polymerization inhibitors derived from thalidomide” (2005).

Columns and labels:
Type in all cases: functional
[1] = species on record: Sus scrofa; assay: Inhibitory activity against tubulin polymerization at 20 uM
[2] = tested on: HL-60; assay: Cell growth-inhibitory activity toward human leukemia cell line HL60 at 10 uM concentration
[3] = tested on: HL-60; assay: Cell growth-inhibitory activity toward human leukemia cell line HL60 at 3 uM concentration
[4] = tested on: HL-60; assay: Cell growth-inhibitory activity toward human leukemia cell line HL60 at 6 uM concentration

| Structure (SMILES) | Inhibition [1] | inhibition at 10 µM [2] | inhibition at 3 µM [3] | inhibition at 6 µM [4] |
| --- | --- | --- | --- | --- |
| CC(C)c1cccc(C(C)C)c1N1C(=O)c2ccc([N+](=O)[O-])cc2C1=O | <10% | 16% | ~0% | < 5% |
| CC(C)c1cccc(C(C)C)c1N1C(=O)c2ccc(N)cc2C1=O | 81% | 23% | ~0% | < 5% |
| O=C1CCC(N2C(=O)c3ccccc3C2=O)C(=O)N1 (stereo not given) [THALIDOMIDE] | <10% |  |  |  |
| CC(C)c1cccc(C(C)C)c1N1C(=O)c2cccc([N+](=O)[O-])c2C1=O | <10% | ~0% | ~0% | ~0% |
| CC(C)c1cccc(C(C)C)c1N1C(=O)c2cccc(N)c2C1=O | <10% | ~0% | ~0% | ~0% |
| CC(C)c1cccc(C(C)C)c1N1C(=O)c2cccc(O)c2C1=O | 7% | 8% | ~0% | ~0% |
| O=C1c2ccccc2C(=O)N1c1ccccc1 [N-PHENYL-PHTHALIMIDE] |  | ~0% | ~0% | ~0% |
| Cc1cccc(C)c1N1C(=O)c2ccccc2C1=O |  | ~0% | ~0% | ~0% |
| O=C1c2cccc(O)c2C(=O)N1c1ccccc1 |  | ~0% | ~0% | ~0% |
| CC(C)c1cccc(C(C)C)c1N1C(=O)c2ccc(O)cc2C1=O | <83% | ~100% | 6% | 72% |
| Cc1cccc(C)c1N1C(=O)c2ccc(O)cc2C1=O | <10% | 6% | ~0% | ~0% |
| O=C1c2ccc(O)cc2C(=O)N1c1ccccc1 | <10% | 34% | ~0% | < 5% |
| Cc1cccc(C)c1N1C(=O)c2cccc(O)c2C1=O |  | ~0% | ~0% | ~0% |
| COc1cc2c(c(OC)c1OC)-c1ccc(OC)c(=O)cc1[C@@H](NC(C)=O)CC2 [COLCHICINE] | 78% |  |  |  |
| CC(C)c1cccc(C(C)C)c1N1C(=O)c2ccccc2C1=O | 7% | < 5% | ~0% | ~0% |
